# According to ChEMBL document CHEMBL1138934, “Indenone derivatives: a novel template for peroxisome proliferator-activated receptor gamma (PPARgamma) agonists” (J Med Chem, 2006):
# Tests used:
# [1] = biological target: T1, Peroxisome proliferator-activated receptor gamma (Homo sapiens, UniProt P37231)
# T1 sequence (P37231 whole entry): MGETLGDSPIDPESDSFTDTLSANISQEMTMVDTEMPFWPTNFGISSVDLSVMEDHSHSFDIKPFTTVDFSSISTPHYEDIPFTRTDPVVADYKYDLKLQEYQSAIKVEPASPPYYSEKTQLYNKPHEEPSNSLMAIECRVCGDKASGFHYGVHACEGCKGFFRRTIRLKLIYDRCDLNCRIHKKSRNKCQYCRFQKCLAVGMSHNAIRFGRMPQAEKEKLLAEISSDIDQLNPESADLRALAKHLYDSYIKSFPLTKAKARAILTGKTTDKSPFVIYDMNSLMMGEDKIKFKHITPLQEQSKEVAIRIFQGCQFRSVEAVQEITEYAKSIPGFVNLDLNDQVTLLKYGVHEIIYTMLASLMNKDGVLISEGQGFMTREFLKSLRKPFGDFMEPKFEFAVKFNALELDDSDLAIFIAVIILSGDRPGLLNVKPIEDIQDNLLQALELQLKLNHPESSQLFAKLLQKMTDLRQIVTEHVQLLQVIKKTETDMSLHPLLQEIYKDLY
# Description: Activity at human PPAR gamma transfected in NIH3T3 cells by luciferase activity assay
# [2] = biological target: T2, Peroxisome proliferator-activated receptor alpha (Homo sapiens, UniProt Q07869); assay: Activity at human PPAR alpha
# T2 sequence (Q07869 whole entry): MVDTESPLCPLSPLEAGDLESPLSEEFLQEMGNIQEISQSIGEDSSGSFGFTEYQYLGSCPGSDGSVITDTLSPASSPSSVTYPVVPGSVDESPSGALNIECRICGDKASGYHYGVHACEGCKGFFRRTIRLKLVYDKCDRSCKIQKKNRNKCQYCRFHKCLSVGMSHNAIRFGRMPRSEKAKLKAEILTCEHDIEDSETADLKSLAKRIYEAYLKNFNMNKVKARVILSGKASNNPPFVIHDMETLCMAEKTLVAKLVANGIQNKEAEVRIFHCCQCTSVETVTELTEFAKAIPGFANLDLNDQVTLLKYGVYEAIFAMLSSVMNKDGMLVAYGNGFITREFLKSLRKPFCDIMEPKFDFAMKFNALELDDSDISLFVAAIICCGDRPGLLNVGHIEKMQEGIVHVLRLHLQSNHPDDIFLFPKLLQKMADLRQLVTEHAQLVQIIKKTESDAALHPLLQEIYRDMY
Compound,EC50 [1],EC50 [2]
CCOC(=O)C1=C(c2ccccc2)c2ccc(OCCCc3ccccc3)cc2C1=O,50 nM,
CCOC(=O)C1=C(c2ccccc2)c2ccc(OC)cc2C1=O,300 nM,> 100000 nM
CCOC(=O)CC1=C(c2ccccc2)c2ccc(OC)cc2C1=O,300 nM,
CCOC(=O)C1=C(c2ccccc2)c2ccc(OCc3ccccc3)cc2C1=O,220 nM,
CCOC(=O)C1=C(c2ccccc2)c2ccc(OCCc3ccccc3)cc2C1=O,210 nM,

# Further lines, results first:
EC50 [1],EC50 [2],Compound
2500 nM,,CCOC(=O)C1=C(C23CC4CC(CC(C4)C2)C3)c2ccc(OC)cc2C1=O
> 10000 nM,,CCOC(=O)C1=C(c2ccccc2)c2ccc(OC)cc2C1
> 10000 nM,,CCOC(=O)C1=C(c2ccccc2)c2ccc(OC)cc2/C1=N/O
1000 nM,,CCOC(=O)C1=C(c2ccoc2)c2ccc(OC)cc2C1=O
